The source made the active and inactive calls. The calls are words filed in the database; no cut-off is given here.

For one assay, the system named is MCF7. Briefly: Antiproliferative activity against human MCF7 cells after 48 hrs by MTT assay. Type of assay: functional, cell-based. As to conditions: MCF7, 48 h. In general terms: Tetrazolium assays rely on reduction of a dye to a coloured formazan, in cell work by metabolically active cells.
Assay [1] has as its system A549. Briefly: Antiproliferative activity against human A549 cells after 48 hrs by MTT assay. The format is functional, cell-based. As to conditions: A549, 48 h.
In a further assay the test system is HeLa. Briefly: Antiproliferative activity against human HeLa cells after 48 hrs by MTT assay. Type of assay: functional, cell-based.
A further assay relates to DU-145. Briefly: Antiproliferative activity against human DU145 cells after 48 hrs by MTT assay. Conditions: DU-145, 48 h. The format is functional, cell-based.
The subject of assay [2] is A549. Briefly: Anticancer activity against human A549 cells assessed as decrease in viable cells at cytotoxic IC50 level after 48 hrs by phase contrast microscopic analysis. Type of assay: functional, cell-based.
Assay [3] deals with A549. Briefly: Induction of morphological change in human A549 cells assessed as cell detachment at cytotoxic IC50 level after 48 hrs by phase contrast microscopic analysis. Type of assay: functional, cell-based.
Assay [4] has as its system A549. Briefly: Induction of morphological change in human A549 cells assessed as nucleus shrinkage at cytotoxic IC50 level after 48 hrs by phase contrast microscopic analysis. The format is functional, cell-based.
The subject of assay [5] is A549. Briefly: Inhibition of cell migration in human A549 cells at cytotoxic IC50 level after 24 to 48 hrs by wound healing assay. Type of assay: functional.
Assay [6] relates to A549. Briefly: Induction of apoptosis in human A549 cells assessed as fragmented nuclei at cytotoxic IC50 level after 24 hrs by […] staining based confocal fluorescence microscopic analysis. Type of assay: functional, cell-based.
Assay [7] concerns A549. Briefly: Induction of apoptosis in human A549 cells assessed as chromatin condensation at cytotoxic IC50 level after 24 hrs by […] staining based confocal fluorescence microscopic analysis. Type of assay: functional, cell-based.
Assay [8] relates to A549. Briefly: Induction of apoptosis in human A549 cells assessed as horseshoe shaped nuclei at cytotoxic IC50 level after 24 hrs by […] staining based confocal fluorescence microscopic analysis. Type of assay: functional, cell-based.
Assay [9] has as its system A549. Briefly: Induction of apoptosis in human A549 cells assessed as disruption of mitochondrial membrane potential at cytotoxic IC50 level after 24 hrs by rhodamine-123 staining based spectrofluorometry relative to control. Type of assay: functional.
The subject of assay [10] is A549. Briefly: Induction of apoptosis in human A549 cells assessed as increase in intracellular reactive oxygen species level at cytotoxic IC50 level after 24 hrs by DCFH-DA staining based spectrofluorometry relative to control. The format is functional.
For assay [11], the system named is A549. Briefly: Inhibition of cell migration in human A549 cells at cytotoxic IC50 level after 24 hrs by wound healing assay. The format is functional.
For assay [12], the system named is A549. Briefly: Inhibition of cell migration in human A549 cells at cytotoxic IC50 level after 48 hrs by wound healing assay. The format is functional.
In assay [13] the test system is A549. Briefly: Induction of cell cycle arrest in human A549 cells assessed as accumulation at G1 phase at 1 uM after 24 hrs by propidium iodide staining based flow cytometry (reference value: 72.27%). The format is functional. In general terms: In flow cytometry, cells or beads pass a laser one at a time.
In assay [14] the test system is A549. Briefly: Induction of cell cycle arrest in human A549 cells assessed as accumulation at G1 phase at 2 uM after 24 hrs by propidium iodide staining based flow cytometry (reference value: 72.27%). The format is functional.
Assay [15] concerns A549. Briefly: Induction of cell cycle arrest in human A549 cells assessed as accumulation at S phase at 1 uM after 24 hrs by propidium iodide staining based flow cytometry (reference value: 4.96%). The format is functional.
In assay [16] the test system is A549. Briefly: Induction of cell cycle arrest in human A549 cells assessed as accumulation at S phase at 2 uM after 24 hrs by propidium iodide staining based flow cytometry (reference value: 4.96%). Type of assay: functional.
Assay [17] relates to A549. Briefly: Induction of cell cycle arrest in human A549 cells assessed as accumulation at G2/M phase at 1 uM after 24 hrs by propidium iodide staining based flow cytometry (reference value: 21.85%). The format is functional.
In assay [18] the test system is A549. Briefly: Induction of cell cycle arrest in human A549 cells assessed as accumulation at G2/M phase at 2 uM after 24 hrs by propidium iodide staining based flow cytometry (reference value: 21.85%). The format is functional.
In assay [19] the test system is A549. Briefly: Induction of apoptosis in human A549 cells assessed as extremely condensed chromatin at 0.5 uM after 24 hrs by acridine orange/ethidium bromide staining based fluorescence microscopic analysis. The format is functional, cell-based.
Assay [20] deals with A549. Briefly: Induction of apoptosis in human A549 cells assessed as cell membrane blebbing at 0.5 uM after 24 hrs by acridine orange/ethidium bromide staining based fluorescence microscopic analysis. The format is functional.
Assay [21] deals with A549. Briefly: Induction of apoptosis in human A549 cells assessed as destructive fragmentation of nuclei at 1 uM after 24 hrs by acridine orange/ethidium bromide staining based fluorescence microscopic analysis. Type of assay: functional, cell-based.
For assay [22], the system named is A549. Briefly: Induction of apoptosis in human A549 cells assessed as irregular distribution of chromatin at 1 uM after 24 hrs by acridine orange/ethidium bromide staining based fluorescence microscopic analysis. The format is functional, cell-based.
The test system of assay [23] is A549. Briefly: Induction of apoptosis in human A549 cells assessed as extremely condensed chromatin at 2 uM after 24 hrs by acridine orange/ethidium bromide staining based fluorescence microscopic analysis. The format is functional, cell-based.

What is called IC50 is the concentration needed to halve the response being measured. For `CN1C(=O)C2(Cn3nncc3CO2)c2cc(F)ccc21` (configuration not stated), the IC50 in the assay with MCF7, with A549 [1], in the assay with HeLa and with DU-145 was above 50 µM each time.

Consider `N#Cc1ccc(CN2C(=O)C3(Cn4nncc4CO3)c3cc(Cl)ccc32)cc1` (configuration not stated), for which the IC50 in the assay with MCF7 was 10.2 µM; in the assay with A549 [1], 7.94 µM; with HeLa, 22.3 µM; in the assay on DU-145, 28 µM.

Consider `O=C1N(Cc2ccc(Br)cc2)c2ccc(Br)cc2C12Cn1nncc1CO2` (configuration not stated), for which the IC50 in the assay on MCF7 is 6.29 µM; with A549 [1] it was 4.26 µM; with HeLa, 12 µM; with DU-145, 8.14 µM. Besides, the result in the assay with A549 [2], in the assay on A549 [3], with A549 [4], in the assay with A549 [6], with A549 [7] and in the assay on A549 [8] was Active. The outcome with A549 [9] was Active. Moreover, in the assay on A549 [5], the “inhibition (INH)” value stood at 38.1%. The “fold change (FC)” value in the assay on A549 [10] is given as 2.3.

Turning to `O=c1[nH]cc(F)c(=O)[nH]1` [FLUOROURACIL], the results for the half-maximal inhibitory concentration (IC50) in the assay with A549 [1], in the assay with HeLa and with DU-145 were 7.24 µM, 8.32 µM and 6.07 µM, respectively.

As for `O=C1N(Cc2ccc(Br)cc2)c2ccc(F)cc2C12Cn1nncc1CO2` (configuration not stated), the concentration for half-maximal inhibition (IC50) with MCF7 amounted to 8.31 µM; with A549 [1], 4.36 µM; in the assay on HeLa it was 14.6 µM; in the assay on DU-145, 37.1 µM.

Take `CN1C(=O)C2(Cn3nncc3CO2)c2cc(Cl)ccc21` (configuration not stated): the half-maximal inhibitory concentration (IC50) with MCF7 was 35.5 µM; in the assay with A549 [1], above 50 µM; with HeLa, above 50 µM; with DU-145, above 50 µM.

Turning to `O=C1N(Cc2ccccc2)c2ccccc2C12Cn1nncc1CO2` (configuration not stated), the 50% inhibitory concentration (IC50) in the assay on MCF7 was 17.8 µM; with A549 [1], 10.5 µM; with HeLa, above 50 µM; with DU-145, above 50 µM.

With `O=C1N(Cc2ccccc2)c2ccc(Cl)cc2C12Cn1nncc1CO2` (configuration not stated), the IC50 in the assay with MCF7 worked out at 16.5 µM; in the assay on A549 [1], 12.9 µM; with HeLa it was 15.1 µM; with DU-145, 33.3 µM.

As for `N#Cc1ccc(CN2C(=O)C3(Cn4nncc4CO3)c3ccccc32)cc1` (configuration not stated), the IC50 with MCF7 worked out at 17.2 µM; with A549 [1], 12.6 µM; in the assay on HeLa it was 21.4 µM; with DU-145, 20.4 µM.

Regarding `COc1cccc2c1C(=O)c1c(O)c3c(c(O)c1C2=O)C[C@@](O)(C(=O)CO)C[C@@H]3O[C@H]1C[C@H](N)[C@H](O)[C@H](C)O1` [DOXORUBICIN], the IC50 amounted to 1.05 µM in the assay on MCF7, 1.26 µM in the assay with HeLa and 1.91 µM with DU-145.

In the case of `O=C1N(Cc2ccc(Br)cc2)c2ccccc2C12Cn1nncc1CO2` (configuration not stated), the IC50 was found to be 13.5 µM with MCF7, 14.5 µM in the assay with A549 [1], 15.5 µM in the assay with HeLa and 26.3 µM in the assay with DU-145.

Consider `CCN1C(=O)C2(Cn3nncc3CO2)c2cc(Cl)ccc21` (configuration not stated), for which the IC50 was 28.8 µM in the assay with MCF7, 15.8 µM in the assay with A549 [1], above 50 µM with HeLa and 23.4 µM in the assay with DU-145.

For `CCN1C(=O)C2(Cn3nncc3CO2)c2cc(Br)ccc21` (configuration not stated), the IC50 with MCF7, in the assay on A549 [1], in the assay on HeLa and in the assay on DU-145 was above 50 µM in each case.

For the molecule `O=C1N(Cc2ccccc2)c2ccc(F)cc2C12Cn1nncc1CO2` (configuration not stated), the IC50 is 35.9 µM in the assay on MCF7, 19.9 µM with A549 [1], above 50 µM in the assay on HeLa and 27.5 µM in the assay with DU-145.

On to `CN1C(=O)C2(Cn3nncc3CO2)c2ccccc21` (configuration not stated), for which the IC50 in the assay with MCF7 was 27.7 µM; in the assay on A549 [1], 20.1 µM; in the assay with HeLa, 48 µM; in the assay with DU-145 it was above 50 µM.

As to `Cc1ccc2c(c1)C1(Cn3nncc3CO1)C(=O)N2Cc1ccccc1` (configuration not stated), the half-maximal inhibitory concentration (IC50) in the assay on MCF7 worked out at 19.9 µM; in the assay with A549 [1] it was 14.5 µM; in the assay on HeLa, 18.2 µM; with DU-145, 19.7 µM.

As for `CCN1C(=O)C2(Cn3nncc3CO2)c2ccccc21` (configuration not stated), the IC50 was 8.87 µM in the assay with MCF7, 1.87 µM in the assay on A549 [1], 11.2 µM with HeLa and 19.9 µM in the assay on DU-145. Besides, the result in the assay on A549 [2], in the assay with A549 [3], in the assay with A549 [4], with A549 [6], in the assay on A549 [7] and with A549 [8] was Active. In addition, the result in the assay on A549 [19], in the assay with A549 [20], in the assay with A549 [21], with A549 [22] and in the assay on A549 [23] was Active. Besides, the “inhibition (INH)” value in the assay on A549 [5] came to 38.1%; in the assay with A549 [11], 54.9%; in the assay with A549 [12], 56.1%. Besides, the Activity is listed as 60.21% in the assay on A549 [13]; 46.04% in the assay on A549 [14]; 15.63% with A549 [15]; 16.2% with A549 [16]; 19.77% in the assay with A549 [17]; 35.61% with A549 [18]. Besides, in the assay with A549 [9], the Activity is 48.2%. Besides, the “fold change (FC)” value with A549 [10] is recorded as 2.6.

On to `CCN1C(=O)C2(Cn3nncc3CO2)c2cc(F)ccc21` (configuration not stated), for which the IC50 in the assay on MCF7, in the assay on A549 [1], with HeLa and with DU-145 was above 50 µM throughout.

For `O=C1N(Cc2ccc(Br)cc2)c2ccc(Cl)cc2C12Cn1nncc1CO2` (configuration not stated), the IC50 in the assay with MCF7 was 31.6 µM; in the assay on A549 [1], 23.4 µM; in the assay with HeLa, above 50 µM; with DU-145, above 50 µM.

Regarding `O=C1N(Cc2ccccc2)c2ccc(Br)cc2C12Cn1nncc1CO2` (configuration not stated), the concentration for half-maximal inhibition (IC50) in the assay with MCF7 was 29.5 µM; in the assay with A549 [1], 14.8 µM; with HeLa, 31.5 µM; in the assay with DU-145 it was 49 µM.

Consider `CN1C(=O)C2(Cn3nncc3CO2)c2cc(Br)ccc21` (configuration not stated), for which the IC50 with MCF7, with A549 [1], with HeLa and in the assay with DU-145 was above 50 µM throughout.

For `Cc1ccc2c(c1)C1(Cn3nncc3CO1)C(=O)N2C` (configuration not stated), the concentration for half-maximal inhibition (IC50) in the assay on MCF7 was determined as 9.66 µM; in the assay on A549 [1], 7.41 µM; in the assay on HeLa it was 10.2 µM; in the assay with DU-145, 24 µM.

(Values after ChEMBL document CHEMBL3616468, “Spirooxindole-derived morpholine-fused-1,2,3-triazoles: Design, synthesis, cytotoxicity and apoptosis inducing studies” (Eur J Med Chem, 2015).)
